# Molecular target: T1, Recombinant human renin (Homo sapiens, UniProt P00797)
# T1 construct: isolate the active form (residues 67-406); made in house; host or cells: FreeStyle 293-F cells (transient expression of pcDNA3.1(+)/hREN)
# T1 sequence (P00797 67-406): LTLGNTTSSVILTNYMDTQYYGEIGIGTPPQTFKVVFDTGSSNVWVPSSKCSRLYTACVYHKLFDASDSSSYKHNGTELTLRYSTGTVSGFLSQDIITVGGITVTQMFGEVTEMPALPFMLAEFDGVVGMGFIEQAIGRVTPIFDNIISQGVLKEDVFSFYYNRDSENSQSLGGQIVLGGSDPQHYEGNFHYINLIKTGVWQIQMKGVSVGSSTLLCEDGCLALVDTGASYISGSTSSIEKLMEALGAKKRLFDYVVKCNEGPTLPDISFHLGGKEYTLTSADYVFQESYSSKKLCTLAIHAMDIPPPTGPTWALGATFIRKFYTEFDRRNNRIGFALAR
# Assay: In vitro enzymatic activity assay of renin inhibitors (fluorogenic peptide substrate)
# Type: biochemical
# Settings: read-out: IC50 of Exemplified Compounds Against Renin
# In short: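 Enzyme: recombinant human renin, 3 nM final, 10 min compound pre-incubation at 37 °C; buffer 50 mM Hepes pH 7.4 with 0.1 mg/mL BSA or extra 2% BSA; 5% DMSO.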
row,SMILES,IC50
1,"COCCCn1c([C@@H]2CCCN(C(=O)C[C@H](N)Cc3ccc4ccccc4c3)C2)nc2c1CCCC2 [Compound 241, (R)-3-amino-1((R)-3-(1-(3-methoxypropyl)-4,5,6,7-tetrahydro-1H-benzo[d]imidazol-2-yl)piperidin-1-yl)-4-(naphthalen-2-yl)butan-1-one]",100 to 1000 nM
2,"COCCCn1c([C@@H]2CCCN(C(=O)C[C@H](N)Cc3cccc(Cl)c3)C2)nc2ccccc21 [Compound 79, (R)-3-amino-4-(3-chlorophenyl)-1((R)-3-(1-(3-methoxypropyl)-1H-benzo[d]imidazol-2-yl)piperidin-1-yl)butan-1-one]",100 to 1000 nM
3,"N[C@@H](CC(=O)N1CCCC(c2nc3ccccc3[nH]2)C1)Cc1csc2ccccc12 (stereo partly drawn) [Compound 29, (3R)-1-(3-(1H-benzo[d]imidazol-2-yl)piperidin-1-yl)-3-amino-4-(benzo[b]thiophen-3-yl)butan-1-one]",> 1000 nM
4,"COCCCn1c([C@@H]2CCCN(C(=O)C[C@H](N)CNC(=O)Nc3ccccc3OC(F)F)C2)nc2ccccc21 [Compound 274, 1-((S)-2-amino-4-((R)-3-(1-(3-methoxypropyl)-1H-benzo[d]imidazol-2-yl)piperidin-1-yl)-4-oxobutyl)-3-(2-(difluoromethoxy)phenyl)urea]",100 to 1000 nM
5,"COCCCn1c(C2CCCN(C(=O)C[C@H](N)Cc3ccc4ccccc4c3)C2)nc2ccc(CO)cc21 (stereo partly drawn) [Compound 113, (3R)-3-amino-1-(3-(6-(hydroxymethyl)-1-(3-methoxypropyl)-1H-benzo[d]imidazol-2-yl)piperidin-1-yl)-4-(naphthalen-2-yl)butan-1-one]",100 to 1000 nM
6,"COCCCn1c([C@@H]2CCCN(C(=O)C[C@H](N)Cc3ccc(-c4ccc(C(=O)N[C@@H](C)CO)cc4)cc3)C2)nc2ccccc21 [Compound 187, 4′-((R)-2-amino-4-((R)-3-(1-(3-methoxypropyl)-1H-benzo[d]imidazol-2-yl)piperidin-1-yl)-4-oxobutyl)-N-((S)-1-hydroxypropan-2-yl)biphenyl-4-carboxamide]",< 100 nM
7,"COCCCn1c(C2CCCN(C(=O)C[C@H](N)c3ccccc3)C2)nc2ccccc21 (stereo partly drawn) [Compound 66, (3S)-3-amino-1-(3-(1-(3-methoxypropyl)-1H-benzo[d]imidazol-2-yl)piperidin-1-yl)-3-phenylpropan-1-one]",> 1000 nM
8,O=C(NCc1ccccc1)N1CCCC(c2nc3ccccc3[nH]2)C1 (stereo not shown) [Compound 3],> 1000 nM
9,"N[C@@H](CC(=O)N1CCCC(c2nc3ccccc3[nH]2)C1)Cc1ccc(Br)cc1 (stereo partly drawn) [Compound 34, (3R)-1-(3-(1H-benzo[d]imidazol-2-yl)piperidin-1-yl)-3-amino-4-(4-bromophenyl)butan-1-one]",> 1000 nM
10,"COCCCn1c([C@@H]2CCCN(C(=O)C[C@H](N)CNC(=O)c3cc4ccccc4o3)C2)nc2ccccc21 [Compound 263, N-((S)-2-amino-4-((R)-3-(1-(3-methoxypropyl)-1H-benzo[d]imidazol-2-yl)piperidin-1-yl)-4-oxobutyl)benzofuran-2-carboxamide]",100 to 1000 nM
11,COCCCn1c([C@@H]2CCCN(C(=O)C[C@H](N)Cc3ccc(-n4ccccc4=O)cc3)C2)nc2ccccc21 [Compound 207],100 to 1000 nM
12,"O=C([C@H]1CCCN1)N1CCCC(c2nc3ccccc3[nH]2)C1 (stereo partly drawn) [Compound 54, (3-(1H-benzo[d]imidazol-2-yl)piperidin-1-yl)((R)-pyrrolidin-2-yl)methanone]",> 1000 nM
13,"COCCCn1c([C@@H]2CCCN(C(=O)C[C@H](N)Cc3ccc(-c4ccc(C(=O)NCCOC)cc4)cc3)C2)nc2ccccc21 [Compound 177, 4′-((R)-2-amino-4-((R)-3-(1-(3-methoxypropyl)-1H-benzo[d]imidazol-2-yl)piperidin-1-yl)-4-oxobutyl)-N-(2-methoxyethyl)biphenyl-4-carboxamide]",< 100 nM
14,"COCCCn1c([C@@H]2CCCN(C(=O)C[C@H](N)Cc3ccc(-c4ccccc4COC)cc3)C2)nc2ccccc21 [Compound 130, (R)-3-amino-4-(2′-(methoxymethyl)biphenyl-4-yl)-1-((R)-3-(1-(3-methoxypropyl)-1H-benzo[d]imidazol-2-yl)piperidin-1-yl)butan-1-one]",< 100 nM

# Other lines, results leading:
row,IC50,SMILES
1,100 to 1000 nM,"COCCCn1c([C@@H]2CCCN(C(=O)C[C@H](N)CNS(=O)(=O)c3ccccc3Cl)C2)nc2ccccc21 [Compound 306, N-((S)-2-amino-4-((R)-3-(1-(3-methoxypropyl)-1H-benzo[d]imidazol-2-yl)piperidin-1-yl)-4-oxobutyl)-2-chlorobenzenesulfonamide]"
2,> 1000 nM,"COCCCn1c([C@@H]2CCCN(C(=O)[C@@H]3CN(C(=O)c4c(Cl)cccc4Cl)C[C@H]3N)C2)nc2ccccc21 [Compound 414, ((3R,4S)-4-amino-1-(2,6-dichlorobenzoyl)pyrrolidin-3-yl)((R)-3-(1-(3-methoxypropyl)-1H-benzo[d]imidazol-2-yl)piperidin-1-yl)methanone]"
3,100 to 1000 nM,"COCCCn1c([C@@H]2CCCN(C(=O)[C@@H]3CN(S(=O)(=O)c4ccc(Br)cc4Cl)C[C@H]3N)C2)nc2ccccc21 [Compound 342, ((3R,4S)-4-amino-1-(4-bromo-2-chlorophenylsulfonyl)pyrrolidin-3-yl)((R)-3-(1-(3-methoxypropyl)-1H-benzo[d]imidazol-2-yl)piperidin-1-yl)methanone]"
4,< 100 nM,"CC(=O)NCCn1c([C@@H]2CCCN(C(=O)C[C@H](N)Cc3ccc(-c4ccc(N)nc4)cc3)C2)nc2c(Cl)cccc21 [Compound 479, N-(2-(2-((R)-1-((R)-3-amino-4-(4-(6-aminopyridin-3-yl)phenyl)butanoyl)piperidin-3-yl)-4-chloro-1H-benzo[d]imidazol-1-yl)ethyl)acetamide]"
5,< 100 nM,"COCCCn1c([C@@H]2CCCN(C(=O)C[C@H](N)Cc3ccc(-c4ccc5c(c4)CCO5)cc3)C2)nc2c(F)cccc21 [Compound 490, (R)-3-amino-4-(4-(2,3-dihydrobenzofuran-5-yl)phenyl)-1-((R)-3-(4-fluoro-1-(3-methoxypropyl)-1H-benzo[d]imidazol-2-yl)piperidin-1-yl)butan-1-one]"
6,< 100 nM,"COCCCn1c([C@@H]2CCCN(C(=O)C[C@H](N)Cc3ccc(-c4ccc5c(c4)NC(=O)CO5)cc3)C2)nc2ccccc21 [Compound 438, 6-(4-((R)-2-amino-4-((R)-3-(1-(3-methoxypropyl)-1H-benzo[d]imidazol-2-yl)piperidin-1-yl)-4-oxobutyl)phenyl)-2H-benzo[b][1,4]oxazin-3(4H)-one]"
7,100 to 1000 nM,"COCCCn1c([C@@H]2CCCN(C(=O)[C@@H]3CN(S(=O)(=O)c4cc(C(F)(F)F)ccc4Cl)C[C@H]3N)C2)nc2ccccc21 [Compound 356, ((3R,4S)-4-amino-1-(2-chloro-5-(trifluoromethyl)phenylsulfonyl)pyrrolidin-3-yl)((R)-3-(1-(3-methoxypropyl)-1H-benzo[d]imidazol-2-yl)piperidin-1-yl)methanone]"
8,> 1000 nM,"COCCCn1c([C@@H]2CCCN(C(=O)C[C@H](N)CNC(=O)c3ccccc3OC)C2)nc2ccccc21 [Compound 327, N-((S)-2-amino-4-((R)-3-(1-(3-methoxypropyl)-1H-benzo[d]imidazol-2-yl)piperidin-1-yl)-4-oxobutyl)-2-methoxybenzamide]"
9,< 100 nM,"COCCCn1c([C@@H]2CCCN(C(=O)C[C@H](N)Cc3ccc(-c4ccccc4)cc3)C2)nc2c(C)ccnc21 [Compound 505, (R)-3-amino-4-(biphenyl-4-yl)-1-((R)-3-(3-(3-methoxypropyl)-7-methyl-3H-imidazo[4,5-b]pyridin-2-yl)piperidin-1-yl)butan-1-one]"
10,100 to 1000 nM,"COCCCn1c([C@@H]2CCCN(C(=O)[C@@H]3CN(S(=O)(=O)c4ccc(NC(C)=O)cc4)C[C@H]3N)C2)nc2ccccc21 [Compound 380, N-(4-((3S,4R)-3-amino-4-((R)-3-(1-(3-methoxypropyl)-1H-benzo[d]imidazol-2-yl)piperidine-1-carbonyl)pyrrolidin-1-ylsulfonyl)phenyl)acetamide]"
11,100 to 1000 nM,"COCCCn1c([C@@H]2CCCN(C(=O)C[C@H](N)CNC(=O)NCCc3cc(OC)ccc3OC)C2)nc2ccccc21 [Compound 322, 1-((S)-2-amino-4-((R)-3-(1-(3-methoxypropyl)-1H-benzo[d]imidazol-2-yl)piperidin-1-yl)-4-oxobutyl)-3-(2,5-dimethoxyphenethyl)urea]"
12,100 to 1000 nM,"COCCCn1c([C@@H]2CCCN(C(=O)C[C@H](N)CNC(=O)Nc3ccc(OC)cc3C)C2)nc2ccccc21 [Compound 292, 1-((S)-2-amino-4-((R)-3-(1-(3-methoxypropyl)-1H-benzo[d]imidazol-2-yl)piperidin-1-yl)-4-oxobutyl)-3-(4-methoxy-2-methylphenyl)urea]"
13,100 to 1000 nM,"COCCCn1c([C@@H]2CCCN(C(=O)[C@@H]3CN(S(=O)(=O)c4ccc(Cl)cc4Cl)C[C@H]3N)C2)nc2ccccc21 [Compound 350, ((3R,4S)-4-amino-1-(2,4-dichlorophenylsulfonyl)pyrrolidin-3-yl)((R)-3-(1-(3-methoxypropyl)-1H-benzo[d]imidazol-2-yl)piperidin-1-yl)methanone]"
14,100 to 1000 nM,"COCCCn1c([C@@H]2CCCN(C(=O)C[C@H](N)CNC(=O)c3ccc(-c4ccccc4[N+](=O)[O-])o3)C2)nc2ccccc21 [Compound 275, N-((S)-2-amino-4-((R)-3-(1-(3-methoxypropyl)-1H-benzo[d]imidazol-2-yl)piperidin-1-yl)-4-oxobutyl)-5-(2-nitrophenyl)furan-2-carboxamide]"

# — patent US8138168B1 (Takeda Pharmaceutical Company Limited, priority 2007, dated 2012)
